Source: publication PMC8175350, “Drug repurposing screens identify chemical entities for the development of COVID-19 interventions” (Nature Communications, 2021)
Where two headings read alike, the source gives them in different places.

Legend:
SARS-CoV-2 [1] = test: microbe, parasite or virus in culture; format: cell-based
HeLa-ACE2 cells [2] = test: Total cell count in the HeLa-ACE2 TOA assay; format: cell-based; settings: Homo sapiens
From the text: Supplement 41467_2021_23328_MOESM3_ESM.xlsx, sheet "Table S1" | column: HeLa-ACE2 TOA cell count

Calu-3 cells [3] = test: cells; settings: Homo sapiens
Calu-3 cells [4] = test: Uninfected Calu-3 48 h Cell-Titer Glo cytotoxicity counter screen; settings: curve plateau at infinite concentration
HeLa-ACE2 cells [5] = test: cells; settings: Homo sapiens
SARS-CoV-2 [6] = test: microbe, parasite or virus in culture; format: cell-based; remark: listed apart in the source
HepG2 = HepG2 72 h CellTiter-Glo cytotoxicity; settings: 72 h
[7] = Uninfected HeLa-ACE2 24 h live/dead cytotoxicity counter screen; format: cell-based, human; settings: human, uninfected HeLa-ACE2 cells; read-out: HeLa-ACE2 uninfected cytotoxicity CC50 GeoMean
HeLa-ACE2 cells [8] = test: as above; format: cell-based, human; settings: curve plateau at infinite concentration
HEK293T = HEK293T 72 h CellTiter-Glo cytotoxicity; settings: 72 h
SARS-CoV-2 [9] = test: microbe, parasite or virus in culture; format: cell-based; remark: listed apart in the source
in vitro = settings: human, Calu-3 uninfected cytotoxicity CC50 GeoMean

Work on `CCC(CC)COC(=O)[C@H](C)NP(=O)(OC[C@H]1O[C@@](C#N)(c2ccc3c(N)ncnn23)[C@H](O)[C@@H]1O)Oc1ccccc1` (stereo partly drawn) [Remdesivir - control] yielded an Emax (SARS-CoV-2 [1]; Severe acute respiratory syndrome coronavirus 2, HeLa-ACE2, 10 h, curve plateau at infinite concentration, read-out: HeLa-ACE2 TOA CoV-2 Sinf Average) of 101%, an EC50 (SARS-CoV-2 [1]; Severe acute respiratory syndrome coronavirus 2, HeLa-ACE2, read-out: HeLa-ACE2 TOA CoV-2 EC50 GeoMean) of 770 nM and an Emax (HeLa-ACE2 cells [2]; HeLa-ACE2, 10 h, curve plateau at infinite concentration, read-out: HeLa-ACE2 TOA cell count Sinf Average) of 100%. For the same molecule, the EC50 (HeLa-ACE2 cells [2]; HeLa-ACE2, read-out: HeLa-ACE2 TOA cell count EC50 GeoMean) was greater than 2400 nM, the Emax (Calu-3 cells [3]; Calu-3, 48 h, read-out: Calu-3 cell count Sinf Average) was 101% and the EC50 (Calu-3 cells [3]; Calu-3, read-out: Calu-3 cell count EC50 GeoMean) was 537 nM. For the same molecule, the “Calu-3 uninfected cytotoxicity Sinf Average” value (Calu-3 cells [4]) was -100%, the Emax (HeLa-ACE2 cells [5]; HeLa-ACE2, 24 h, read-out: HeLa-ACE2 cell count Sinf Average) was -42% and the EC50 (HeLa-ACE2 cells [5]; HeLa-ACE2, read-out: HeLa-ACE2 cell count EC50 GeoMean) was greater than 1200 nM. For the same molecule, the Emax (SARS-CoV-2 [6]; Severe acute respiratory syndrome coronavirus 2, HeLa-ACE2, 24 h, curve plateau at infinite concentration, read-out: HeLa-ACE2 CoV-2 Sinf Average) was 100%, the EC50 (SARS-CoV-2 [6]; Severe acute respiratory syndrome coronavirus 2, HeLa-ACE2, detail column, read-out: HeLa-ACE2 CoV-2 EC50 GeoMean) was 123 nM and the “HepG2 72-hour cytotoxicity Sinf Average” value (HepG2) was -100%. The CC50 at 24 h [7] was greater than 9670 nM, the “HeLa-ACE2 uninfected cytotoxicity Sinf Average” value (HeLa-ACE2 cells [8]) was -98% and the “HEK293T 72-hour cytotoxicty Sinf Average” value (HEK293T) was -95%. It also gave an Emax (SARS-CoV-2 [9]; Severe acute respiratory syndrome coronavirus 2, Calu-3, 48 h, curve plateau at infinite concentration, read-out: Calu-3 CoV-2 Sinf Average) of 100%, an EC50 (SARS-CoV-2 [9]; Severe acute respiratory syndrome coronavirus 2, Calu-3, detail column, read-out: Calu-3 CoV-2 EC50 GeoMean) of 444 nM and a CC50 (in vitro) greater than 30000 nM.
